Test system: phosphorylated HS1
Assay: Phosphorylated HS1 in cynomolgus macaque CD8+ T cells from whole blood in vitro (flow cytometry)
Format: cell-based
Settings: Macaca fascicularis, T-cell, whole blood from six cynomolgus macaques, 2 hrs 37° C., 2 μg/mL anti-CD3 & anti-CD28 + crosslinker 60 minutes, read-out: Average mean EC50±standard deviation, phosphorylated HS1
Procedure: To assess these candidate clinical proximal biomarkers of Cbl-b inhibition on T cells, pharmacodynamic analysis was performed. Whole blood was obtained from cynomolgus macaque donors, then incubated with increasing concentrations of Compound 23. The response to Cbl-b inhibition on phosphorylated HS1, ZAP70 and PLCγ2 was measured in CD8^+ T cells using flow cytometry. This technique is highly quantitative and can measure multiple phosphorylation markers in different cell populations within the same sample.
DMSO (Dimethyl sulfoxide) was used to reconstitute Compound 23. Final concentration of DMSO was 0.05% in media for in vitro assays. […]
Stained cells were run on an Attune NxT Acoustic Focusing Flow Cytometer (Thermo Fisher, cat. No. A29004), and data was analyzed using FlowJo (v10.6.1) and GraphPad Prism (v8.00) software. Single lymphocytes were gated for CD8^+ cells (CD45^+/CD8^+) cells, and population frequencies were calculated for each population. The data is quantified by the percent positive. […] As protein becomes phosphorylated the fluorescence increases resulting in a larger fraction of the cells entering that gate. Each population was evaluated for % positive pY759-PLCγ2, pY397-HS1 levels, pY319/Syk (Y352)-ZAP70 levels.

Question: How did the EC50 turn out when `C[C@H]1CCCN(Cc2cc3c(c(C(F)(F)F)c2)CN(c2cccc([C@]4(c5nncn5C)C[C@@H](C)C4)c2)C3=O)C1` [Compound 23] was run?
Answer: Its EC50 is 230 ± 150 nM.

Source: patent US20230355599A1, “BIOMARKERS FOR CBL, AND COMPOSITIONS AND METHODS FOR THEIR USE” (NURIX THERAPEUTICS, INC., priority 2022, published 2023)
